Data taken from patent US20080200535A1, “Amine Compounds” (Asahi Kasei Pharma Corporation, priority 2006, published 2008).

What was measured:
S1P1 receptor = molecular target: T1, S1P1 receptor (Homo sapiens, UniProt P21453); test: 35S-GTPγS binding assay using membrane preparation of CHO cell stably expressing S1P1 receptor; type: biochemical; settings: agonist activity
T1 construct: expressed in transfected cells; membrane preparation
Protocol: ^35s-GTPγS binding assay using membrane preparation of CHO cell stably expressing S1P1 receptor
A G protein-GTPγS binding test associated with a ligand was performed by using a membrane preparation which was obtained from a CHO cell which stably overexpressed S1P1 receptor. In a 96 well-micro-titer dish, the produced membrane protein and a compound which was diluted with a solvent such as DMSO or sphingosine-1-phosphate in various concentrations was incubated in a solution containing 20 mM of Tris-Cl (pH7.5), 100 mM of NaCl, 10 mM of MgCl2, 5μM of GDP, 0.1% of BSA, and […] of ^35s-GTPγS (specific radioactivity, 1250 Ci mmol). The binding was performed for 1 or more hours at room temperature, and the membrane was harvested on a GF/B filter plate by using a Millipore's MultiScreen Separation System to end the binding. After the filter plate was dried for 30 or more minutes, 25 μL of MicroScint-20 was added to each well, and the binding was measured by using the TopCount.
For the agonist activity of compound, the value of a well which a solvent was added to was set to a control value and compared with an increment of an evaluation compound-added well, so that the increment of each concentration of the compound was obtained. EC50 value was calculated under the definition that the value is an agonist concentration required to provide 50% of the maximum increment thereof. […]

adjuvant arthritis rat = test: Adjuvant-induced arthritis model; type: in vivo; settings: 504 h, Lewis female rats, oral once daily for 21 days, dose required to suppress swelling of hind paw by 50% on the 21-th day
Protocol: Adjuvant-Induced Arthritis Model
7-weeks old Lewis female rats are used for evaluation. The volume of a hind paw of a rat was measured. As an adjuvant, 500 μg/100 μL of M. tuberclulosis H37 RA (manufactured by Difco) is subcutaneously injected into the plantar of the left hind paw, so that an adjuvant arthritis rat is produced. A compound which is suspended in a 1% methylcellulose solution is forcibly oral-administered to the stomach by using an oral sonde one-time everyday for 21 days from the injection date of the adjuvant. The evaluation of arthritis is performed by measuring the volume of paw of each tested subject by using PLETHYSMOMETER (manufactured by UGO BASILE) and comparing the measured deta of a compound-administered group with those of a solvent-administered group. Swelling of the plantar portion of hind leg of the solvent-administered group was set to 100%, and a control value (%) was calculated from the swelling of the compound-administered group. An ED50 value, that is, a dosed amount of the compound required to suppress the swelling of the plantar portion of hind paw on the 21-th day from the administration date of the adjuvant by 50% was calculated from the dosed amount of the compound and the control value (%).

peripheral lymphocytes = test: Evaluation of reduction in peripheral blood lymphocyte count; type: in vivo; settings: 3 h; rat, oral; dose required to reduce the lymphocyte count by 50% in three hours from the administration
Protocol: Evaluation of Reduction in Peripheral Blood Lymphocyte count
A compound or a solvent was orally administered to a rat. When 3, 6, 24, 48, and 72 hours had elapsed since the administration of compound, blood was withdrawn from its tail vein. All the blood samples were analyzed hematologically. The total count of peripheral lymphocytes was measured by using an auto-analyzer (Sysmex 2000Xi). The effect of each compound to the total count of peripheral lymphocytes was evaluated by using three or more rats in one group. The reduction in lymphocyte count caused by the administration of compound was compared with that caused by the administration of solvent to a rat group. Namely, the average lymphocyte count of a solvent-administered group was set to 100%, and a control value (%) was calculated from the average lymphocyte count of a compound-administered group. An ED50 value, that is, a dosed amount of the compound required to reduce the lymphocyte count by 50% in three hours from the administration was calculated from the dosed amount of the compound and the control value (%).

T1 sequence (P21453 whole entry): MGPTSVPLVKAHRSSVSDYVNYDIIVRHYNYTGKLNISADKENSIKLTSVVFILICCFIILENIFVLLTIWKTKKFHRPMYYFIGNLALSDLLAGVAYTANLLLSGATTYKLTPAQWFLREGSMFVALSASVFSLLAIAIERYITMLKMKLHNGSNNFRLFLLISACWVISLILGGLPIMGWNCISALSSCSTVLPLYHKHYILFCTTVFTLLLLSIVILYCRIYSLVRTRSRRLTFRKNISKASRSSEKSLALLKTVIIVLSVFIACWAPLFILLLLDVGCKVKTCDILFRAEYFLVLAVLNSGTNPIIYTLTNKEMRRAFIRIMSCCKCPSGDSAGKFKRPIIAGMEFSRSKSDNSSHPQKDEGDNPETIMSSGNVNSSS

| EC50 (S1P1 receptor) [pM] | SMILES | ED50 (adjuvant arthritis rat) [mg/kg] | ED50 (peripheral lymphocytes) [mg/kg] |
| --- | --- | --- | --- |
| 340 | Cc1cc(-c2nc(-c3ccc(CNCCC(=O)O)cc3)no2)ccc1-c1ccccc1.Cl [Example 54] | 0.33 | 0.44 |
| 720 | CC(C)Oc1ccc(-c2nc(-c3ccc(CN[C@H]4C[C@H](C(=O)O)C4)cc3)no2)cc1C(F)(F)F [Example 135] | 0.21 | 0.16 |
